In PubChem BioAssay (NCI):
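Where inhibition never reached the appropriate level, the endpoint shown equals the highest concentration tested. Otherwise, values were interpolated linearly from a five-concentration, 48-hour dose response in 96-well plates. TGI marks complete inhibition of growth.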

Columns and labels:
Test in all cases: DTP human tumour cell line panel, 48 h
NCI-H226 lung = test system: NCI-H226 lung
CAKI-1 renal = test system: CAKI-1 renal
SK-MEL-28 melanoma = test system: SK-MEL-28 melanoma
RXF 393 renal = test system: RXF 393 renal
NCI-H460 lung = test system: NCI-H460 lung
COLO 205 colon = test system: COLO 205 colon
HCC-2998 colon = test system: HCC-2998 colon
HCT-15 colon = test system: HCT-15 colon
A549 NSCLC = test system: A549 NSCLC
LXFL 529 NSCLC = test system: LXFL 529 NSCLC
RPMI-8226 leukemia = test system: RPMI-8226 leukemia
OVCAR-4 ovarian = test system: OVCAR-4 ovarian
TK-10 renal = test system: TK-10 renal
EKVX NSCLC = test system: EKVX NSCLC
SN12C renal = test system: SN12C renal
MALME-3M melanoma = test system: MALME-3M melanoma
SK-MEL-2 melanoma = test system: SK-MEL-2 melanoma
A498 renal = test system: A498 renal
DMS 273 small cell lung = test system: DMS 273 small cell lung
UACC-257 melanoma = test system: UACC-257 melanoma
ACHN renal = test system: ACHN renal
KM12 colon = test system: KM12 colon
SW-620 colon = test system: SW-620 colon
SNB-19 CNS = test system: SNB-19 CNS
UO-31 renal = test system: UO-31 renal
MOLT-4 leukemia = test system: MOLT-4 leukemia
SNB-75 CNS = test system: SNB-75 CNS
SNB-78 CNS = test system: SNB-78 CNS
DMS 114 small cell lung = test system: DMS 114 small cell lung
OVCAR-5 ovarian = test system: OVCAR-5 ovarian
K-562 leukemia = test system: K-562 leukemia
SF-539 CNS = test system: SF-539 CNS
SK-MEL-5 melanoma = test system: SK-MEL-5 melanoma
SF-268 CNS = test system: SF-268 CNS
NCI-H23 lung = test system: NCI-H23 lung
IGROV1 ovarian = test system: IGROV1 ovarian
CCRF-CEM leukemia = test system: CCRF-CEM leukemia
LOX IMVI melanoma = test system: LOX IMVI melanoma
OVCAR-8 ovarian = test system: OVCAR-8 ovarian
HL-60(TB) leukemia = test system: HL-60(TB) leukemia
XF 498 CNS = test system: XF 498 CNS
SR leukemia = test system: SR leukemia
HOP-92 NSCLC = test system: HOP-92 NSCLC
KM20L2 colon = test system: KM20L2 colon
HT29 colon = test system: HT29 colon
M14 melanoma = test system: M14 melanoma
SF-295 CNS = test system: SF-295 CNS
U251 CNS = test system: U251 CNS
HOP-18 NSCLC = test system: HOP-18 NSCLC
HCT-116 colon = test system: HCT-116 colon
786-0 renal = test system: 786-0 renal
SK-OV-3 ovarian = test system: SK-OV-3 ovarian
UACC-62 melanoma = test system: UACC-62 melanoma
OVCAR-3 ovarian = test system: OVCAR-3 ovarian
M19-MEL melanoma = test system: M19-MEL melanoma
NCI-H522 lung = test system: NCI-H522 lung
HOP-62 NSCLC = test system: HOP-62 NSCLC
DLD-1 colon = test system: DLD-1 colon

Structure (SMILES): CCOC(=O)C(C(=O)OCC)c1cc(-c2cc3ccccc3o2)oc(=O)c1C#N
- TGI (NCI-H226 lung): 41.9 µM
- TGI (CAKI-1 renal): 38.1 µM
- TGI (SK-MEL-28 melanoma): 63.3 µM
- TGI (RXF 393 renal): 43.5 µM
- TGI (NCI-H460 lung): > 100 µM
- TGI (COLO 205 colon): 48.7 µM
- TGI (HCC-2998 colon): 46.9 µM
- TGI (HCT-15 colon): 35.7 µM
- TGI (A549 NSCLC): > 100 µM
- TGI (LXFL 529 NSCLC): 41.8 µM
- TGI (RPMI-8226 leukemia): > 100 µM
- TGI (OVCAR-4 ovarian): 71.4 µM
- TGI (TK-10 renal): 52.1 µM
- TGI (EKVX NSCLC): > 100 µM
- TGI (SN12C renal): 62.9 µM
- TGI (MALME-3M melanoma): 55.7 µM
- TGI (SK-MEL-2 melanoma): 38.2 µM
- TGI (A498 renal): 70.1 µM
- TGI (DMS 273 small cell lung): 60.1 µM
- TGI (UACC-257 melanoma): 76.4 µM
- TGI (ACHN renal): > 100 µM
- TGI (KM12 colon): > 100 µM
- TGI (SW-620 colon): 52.6 µM
- TGI (SNB-19 CNS): > 100 µM
- TGI (UO-31 renal): 90.3 µM
- TGI (MOLT-4 leukemia): 87.2 µM
- TGI (SNB-75 CNS): 90.6 µM
- TGI (SNB-78 CNS): 73.4 µM
- TGI (DMS 114 small cell lung): 67.1 µM
- TGI (OVCAR-5 ovarian): 33.1 µM
- TGI (K-562 leukemia): > 100 µM
- TGI (SF-539 CNS): 36.8 µM
- TGI (SK-MEL-5 melanoma): > 100 µM
- TGI (SF-268 CNS): > 100 µM
- TGI (NCI-H23 lung): 36.7 µM
- TGI (IGROV1 ovarian): 80 µM
- TGI (CCRF-CEM leukemia): > 100 µM
- TGI (LOX IMVI melanoma): 31.8 µM
- TGI (OVCAR-8 ovarian): 49.1 µM
- TGI (HL-60(TB) leukemia): 64.8 µM
- TGI (XF 498 CNS): 36.3 µM
- TGI (SR leukemia): 66.3 µM
- TGI (HOP-92 NSCLC): 20.6 µM
- TGI (KM20L2 colon): 37.5 µM
- TGI (HT29 colon): 35 µM
- TGI (M14 melanoma): 36.9 µM
- TGI (SF-295 CNS): 48.2 µM
- TGI (U251 CNS): 30.6 µM
- TGI (HOP-18 NSCLC): 65.4 µM
- TGI (HCT-116 colon): 44.9 µM

Structure (SMILES): c1ccc2cc(C3NCCc4[nH]cnc43)ccc2c1 (stereo not drawn)
- TGI (NCI-H226 lung): > 100 µM
- TGI (CAKI-1 renal): > 100 µM
- TGI (SK-MEL-28 melanoma): > 100 µM
- TGI (RXF 393 renal): > 100 µM
- TGI (NCI-H460 lung): > 100 µM
- TGI (COLO 205 colon): 62.5 µM
- TGI (HCC-2998 colon): > 100 µM
- TGI (HCT-15 colon): > 100 µM
- TGI (A549 NSCLC): > 100 µM
- TGI (LXFL 529 NSCLC): > 100 µM
- TGI (RPMI-8226 leukemia): > 100 µM
- TGI (OVCAR-4 ovarian): > 100 µM
- TGI (TK-10 renal): 82.1 µM
- TGI (SN12C renal): > 100 µM
- TGI (SK-MEL-2 melanoma): > 100 µM
- TGI (A498 renal): 88.5 µM
- TGI (DMS 273 small cell lung): > 100 µM
- TGI (786-0 renal): > 100 µM
- TGI (UACC-257 melanoma): 70.9 µM
- TGI (ACHN renal): > 100 µM
- TGI (KM12 colon): 56.2 µM
- TGI (SW-620 colon): > 100 µM
- TGI (UO-31 renal): > 100 µM
- TGI (MOLT-4 leukemia): 57.9 µM
- TGI (SK-OV-3 ovarian): > 100 µM
- TGI (SNB-75 CNS): > 100 µM
- TGI (SNB-78 CNS): > 100 µM
- TGI (DMS 114 small cell lung): > 100 µM
- TGI (OVCAR-5 ovarian): > 100 µM
- TGI (K-562 leukemia): > 100 µM
- TGI (SF-539 CNS): > 100 µM
- TGI (SK-MEL-5 melanoma): 45.3 µM
- TGI (SF-268 CNS): > 100 µM
- TGI (UACC-62 melanoma): > 100 µM
- TGI (NCI-H23 lung): > 100 µM
- TGI (IGROV1 ovarian): > 100 µM
- TGI (CCRF-CEM leukemia): 91.6 µM
- TGI (LOX IMVI melanoma): > 100 µM
- TGI (OVCAR-8 ovarian): > 100 µM
- TGI (OVCAR-3 ovarian): > 100 µM
- TGI (M19-MEL melanoma): > 100 µM
- TGI (SR leukemia): > 100 µM
- TGI (HOP-92 NSCLC): > 100 µM
- TGI (KM20L2 colon): > 100 µM
- TGI (HT29 colon): > 100 µM
- TGI (M14 melanoma): > 100 µM
- TGI (SF-295 CNS): > 100 µM
- TGI (NCI-H522 lung): > 100 µM
- TGI (U251 CNS): > 100 µM
- TGI (HOP-62 NSCLC): > 100 µM
- TGI (HOP-18 NSCLC): > 100 µM
- TGI (HCT-116 colon): > 100 µM
- TGI (DLD-1 colon): > 100 µM
